Results taken from patent US7056511B2, “Inhibition of protein binding to mast cells” (Fornix Biosciences N.V., priority 1998, dated 2006).

What was measured:
[1] = test system: RBL-2H3 cells; assay: Binding of FITC-labeled Ig LC to RBL-2H3 mast cell model (FACScan flow cytometer); format: cell-based, rat
Procedure: Basophilic leukemia cells RBL-2H3 (a gift of C. Fewtrell, Ithaca, N.Y., U.S.A.) of the rat, an established model for mast cells, were incubated with 200 ng/10^5 cells Ig LC labeled with fluorescein isothiocyanate. They were incubated for 30 minutes at 4° C. in the presence or absence of 250 μg/ml of the peptide LCBP prepared in preparation 1 (peptide binding to the light chain). Subsequently, they were washed using a phosphate-buffered saline supplemented with 1% v/v fetal calf serum and 0.01% w/v sodium azide. Binding of FITC-labeled Ig LC to RBL-2H3 cells was analyzed using a FACScan flow cytometer.
Curve 4 represents the autofluorescence of unlabeled RBL-2H3 cells.

[2] = test system: mice; assay: Bronchoconstriction (Penh, plethysmography) in mice passively sensitized with TNP-specific Ig LC and challenged intranasally with PSA; format: in vivo
Procedure: Lightly anaesthetized with halothane, mice were passively sensitized by injection with trinitrophenyl (TNP)-specific Ig LC (2 μg in 50 μl of sterile saline) in the retroorbital plexus. Control mice received only 50 μl of sterile saline. Thirty minutes after injection, while being lightly anaesthetized with halothane, all mice received intranasally 50 μl PSA-solution (picrylsulphonic acid dissolved in phosphate-buffered saline).
A part of each of these two groups of mice simultaneously received 200 μg LCBP (the peptide prepared in Example 1) intranasally.
Bronchoconstriction was measured as described by Kraneveld A. D. et al. (ref. 3) and Zuany-Amorim et al. (ref. 6). In short, five minutes before intranasal application of PSA, mice were placed in a plethysmographic chamber (Buxco Electronics Inc., Shanon, Conn.) in order to analyze respiration and to obtain basal line readings. After the intranasal administration, the animals were directly returned to the chamber. The respiratory resistance was measured for a period of 45 minutes. The respiratory resistance is expressed as a dimensionless value calculated by using the formula for the Penh (ref. 4).

## Ac-AHWSGHCCL-NH2 (cysteine pairing not given here) [LCBP]
[1]; LCBP 0.25 mg/ml, FIG. 1 curve 2
  Inhibition of Ig LC binding to mast cells: can be inhibited
[1]; LCBP 0.50 mg/ml, FIG. 1 curve 3
  Inhibition of Ig LC binding to mast cells: can be inhibited
[2]; LCBP/PBS/PSA group (200 μg LCBP intranasally, saline instead of Ig LC), time 0 min, basal line reading before the challenge
  Penh (maximum, respiratory resistance): 0.44 ± 0.05
[2]; LCBP/PBS/PSA group (200 μg LCBP intranasally, saline instead of Ig LC), time 2.5 min
  Penh (maximum, respiratory resistance): 0.60 ± 0.12
[2]; LCBP/PBS/PSA group (200 μg LCBP intranasally, saline instead of Ig LC), time 5 min
  Penh (maximum, respiratory resistance): 0.65 ± 0.23
[2]; LCBP/PBS/PSA group (200 μg LCBP intranasally, saline instead of Ig LC), time 7.5 min
  Penh (maximum, respiratory resistance): 0.74 ± 0.12
[2]; LCBP/PBS/PSA group (200 μg LCBP intranasally, saline instead of Ig LC), time 10 min
  Penh (maximum, respiratory resistance): 0.53 ± 0.03
[2]; LCBP/PBS/PSA group (200 μg LCBP intranasally, saline instead of Ig LC), time 15 min
  Penh (maximum, respiratory resistance): 0.49 ± 0.06
[2]; LCBP/PBS/PSA group (200 μg LCBP intranasally, saline instead of Ig LC), time 20 min
  Penh (maximum, respiratory resistance): 0.49 ± 0.03
[2]; LcBP/Ig LC/PSA group (200 μg LCBP intranasally, Ig LC-sensitized mice), time 0 min, basal line reading before the challenge
  Penh (maximum, respiratory resistance): 0.43 ± 0.05
[2]; LcBP/Ig LC/PSA group (200 μg LCBP intranasally, Ig LC-sensitized mice), time 2.5 min
  Penh (maximum, respiratory resistance): 0.87 ± 0.20
[2]; LcBP/Ig LC/PSA group (200 μg LCBP intranasally, Ig LC-sensitized mice), time 5 min
  Penh (maximum, respiratory resistance): 1.12 ± 0.20
[2]; LcBP/Ig LC/PSA group (200 μg LCBP intranasally, Ig LC-sensitized mice), time 7.5 min
  Penh (maximum, respiratory resistance): 0.87 ± 0.10
[2]; LcBP/Ig LC/PSA group (200 μg LCBP intranasally, Ig LC-sensitized mice), time 10 min
  Penh (maximum, respiratory resistance): 0.87 ± 0.20
[2]; LcBP/Ig LC/PSA group (200 μg LCBP intranasally, Ig LC-sensitized mice), time 15 min
  Penh (maximum, respiratory resistance): 0.85 ± 0.01
[2]; LcBP/Ig LC/PSA group (200 μg LCBP intranasally, Ig LC-sensitized mice), time 20 min
  Penh (maximum, respiratory resistance): 0.52 ± 0.05
[2]; intranasal LCBP during passive sensitization (i.v.) with Ig LC
  Inhibition of bronchoconstriction (elevation of Penh) induced by antigen (PSA): completely inhibit
